Source: patent US8916579B2, “5-fluoropyrimidinone derivatives” (Dow AgroSciences, LLC., priority 2009, dated 2014)
Read-outs that look alike come from different tables or passages of the source.

Assays:
[1] = test system: Mycosphaerella graminicola; anamorph: Septoria tritici; Bayer code SEPTTR; assay: Fungicidal activity: leaf blotch of wheat, greenhouse wheat plants (variety Yuma), percent disease control; assay type: in vivo; conditions: Zymoseptoria tritici
Method: Evaluation of Fungicidal Activity: Leaf Blotch of Wheat (Mycosphaerella graminicola; anamorph: Septoria tritici; Bayer code SEPTTR)
Wheat plants (variety Yuma) were grown from seed in a greenhouse in 50% mineral soil/50% soil-less Metro mix until the first leaf was fully emerged, with 7-10 seedlings per pot. These plants were inoculated with an aqueous spore suspension of Septoria tritici either prior to or after fungicide treatments. After inoculation the plants were kept in 100% relative humidity (one day in a dark dew chamber followed by two to three days in a lighted dew chamber) to permit spores to germinate and infect the leaf. The plants were then transferred to a greenhouse for disease to develop.
The effectiveness of the test compounds in controlling disease was determined by assessing the severity of disease on treated plants, then converting the severity to percent control based on the level of disease on untreated, inoculated plants. • In each case of Table II the rating scale is as follows: […]

[2] = 24 h, One-Day Protectant (1DP), 100 ppm, wheat plants, read-out: SEPTTR 100 PPM 1DP (% Disease Control rating)
[3] = 72 h, Three-Day Curative (3DC), 100 ppm, wheat plants, read-out: SEPTTR 100 PPM 3DC (% Disease Control rating)
[4] = 24 h, read-out: SEPTTR 100 PPM 1DP (% Disease Control rating)
[5] = 72 h, read-out: SEPTTR 100 PPM 3DC (% Disease Control rating)

Row | SMILES | melting point [°C] | pest or weed control at 100 ppm [1, 2] [%] | pest or weed control at 100 ppm [1, 3] [%] | pest or weed control at 100 ppm [1, 4] [%] | pest or weed control at 100 ppm [1, 5] [%]
1 | COc1ccc(-n2cc(F)c(/N=C/N(C)C)nc2=O)cc1OC [Compound 57] | 196.1 to 198 | 0 to 25 | 0 to 25 |  | 
2 | CC(C)COC(=O)Nc1nc(=O)n(C)cc1F [Compound 10, (5-fluoro-1-methyl-2-oxo-1,2-dihydropyrimidin-4-yl)carbamic acid isobutyl ester] | 126 to 128 |  |  | 26 to 50 | 51 to 75
3 | CC(C)(C)C(=O)OCn1cc(F)c(N)nc1=O [Compound 22] | 259 to 264 | 76 to 100 | 76 to 100 |  | 
4 | COc1ccc(-n2cc(F)c(NCc3ccccc3F)nc2=O)cc1OC [Compound 66] | 206.3 to 207.9 | 0 to 25 | 0 to 25 |  | 
5 | CCOC(=O)Nc1nc(=O)n(CC2CC2)cc1F [Compound 80, ethyl 1-(cyclopropylmethyl)-5-fluoro-2-oxo-1,2-dihydropyrimidin-4-ylcarbamate] | 90 to 92 |  |  | 0 to 25 | 51 to 75
6 | O=c1nc(NCc2ccccc2F)c(F)cn1-c1ccsc1 [Compound 65, 5-fluoro-4-(2-fluorobenzylamino)-1-(thiophen-3-yl)pyrimidin-2(1H)-one] | 75 to 78 | 0 to 25 | 0 to 25 |  | 
7 | CCCC(=O)OCn1cc(F)c(N)nc1=O [Compound 21] | 210 to 214 | 76 to 100 | 76 to 100 |  | 
8 | CC(C)Cn1cc(F)c(N)nc1=O [Compound 77] | 140 to 142.8 | 26 to 50 | 0 to 25 |  | 
9 | Nc1nc(=O)n(CCc2ccc(Cl)cc2)cc1F [Compound 31] | 252 to 254 | 0 to 25 | 76 to 100 |  | 
